In one test the test system is PBMC. Put plainly: Cytokine release assay to measure IL-6 from PBMC (ELISA). As to conditions: for stimulation of IL-6 release by PBMC (in words): 6 and 24 hours; for EC50: Homo sapiens. The class given is cell-based, human. As for the experimental part: Fresh blood was collected from healthy volunteers and stored in Heparin Sodium tubes. 15 mL of blood was subsequently transferred to a 50 ml centrifugal tube and gently mixed with equal volume of DPBS. 10 ml Ficoll was slowly underlayed using pipette. The tube was centrifuged for 30 minutes at 800 g at RT without break. The buffy coat (containing PBMC) was aspirated at the interface between serum and Ficoll. The PBMC were washed with sufficient DPBS and centrifuged at 900 g to remove the Ficoll. RPMI-1640 Medium was added to the collected PBMC and the number of PBMC determined by counting. 1 ml of blood typically yields at least 1 million of PBMC.
PBMC were counted and cell densities adjusted. 100 μl of cells were added into the required number of wells such that the cell density for the IL-6 assay was 5,000/well. LD1-oxidized mannan conjugates for screening were serially diluted in DMSO. The LD1 solution was added to each well (final concentration of DMSO in assay was not more than 0.03%). The plates were incubated in a CO2 incubator at 37° C. and supernatants collected at 6 and 24 hours. At each time point of collection, the plates were centrifuged at 900 rpm for 4 minutes and the supernatents transferred to another 96 well plate. These were labelled and stored at −80° C. ELISA kits for IL-6 (Invitrogen) were used for quantitation of cytokine released. The ELISAs were performed as described in the manufacturer's instructions. The absorbances were measured by FlexStation 3. A standard curve for each cytokine was drawn each time for analyzing the data.
The Loxorubine (LOX) derivative, LD1, was synthesised and conjugated to oxidized mannan (LD1-OM) as described above. The LOX derivative, LD1, incorporates a hydrazide linkage for conjugation to aldehyde residues of oxidized mannan and an ester linkage between the linker and the LOX. LD1 oxidized mannan conjugates were used to stimulate PBMCs isolated from human donors and IL-6 cytokine release measured by ELISA.
(In general: An ELISA detects its analyte on a solid surface through an enzyme-linked reagent.)

Test [1] deals with MART-1-specific CD8 T cells. Nature of the test: Priming and recall of MART-1-specific T cell responses (intracellular IFNγ). The class given is cell-based, human. As to conditions: PBMC and MoDC from donors BC28 and BC29, 20 μg/ml. Here is the method:
MoDC at 2×10^5/ml (for 1:20 MoDC:T cell) in complete AB medium were added to a 24 well plate (1 ml per test condition) followed by protein or >1000 kDa oxidized mannan conjugate (10-20 μg/ml). Four hours later, 4×10^6 CD14 depleted PBMC were added to the wells in 1 ml complete AB medium. After 3 days, 25 U/ml IL-2, 10 ng/ml IL-7 and 10 ng/ml IL-15 was added. The T cells were re-stimulated 7-10 days later with 1×10^5 MoDC loaded with antigen. Twenty four hours following re-stimulation, cultures were supplemented with 25 U/ml IL-2 and again 3-4 days after. T cell cultures were typically analysed after 1 or 2 re-stimulations.
For T cell epitope peptides—Peptide loaded T2 cells (2×10^5/well) were prepared by pulsing with an irrelevant peptide (e.g., CAP-1 10 μg/ml or no peptide) and one with the peptide of interest ([…]) for 1 hour in serum free medium with 1.25 μg/ml β2-microglobulin. T2 cells were added at about a 1:5 ratio (4×10^4/well) in 100 μl to the duplicate T cell wells and incubate for 1 hour at 37° C. 5% CO2. […]
PBMC and MoDC from 2 donors (BC28 and BC29) were used for priming with MART-1 and >1000 kDa oxidized mannan conjugates (20 μg/ml) as described in Example 1. After 1 stimulation, analog and native MART-1 peptide-specific T cell responses were measured using pulsed T2 cells (FIG. 51). […]

Like-named read-outs stand apart in the source and are kept apart here.

Regarding `C=CCn1c(=O)n([C@@H]2O[C@H](CO)[C@@H](O)[C@H]2O)c2nc(N)[nH]c(=O)c21` [LOX, 7-allyl-7,8-dihydro-8-oxo-guanosine], the “stimulation of IL-6 release by PBMC (in words)” value with PBMC (LOX at 500 μM) is given as “able to stimulate IL-6 release”. Further, in the test with PBMC (6 hr, LOX at 500 μM), the “Amount IL-6 (pg/ml), 6 hr” value was “failed to induce IL-6”. In addition, the “Amount IL-6 (pg/ml), 24 hr” value in the test on PBMC (24 hr, LOX at 500 μM) is 10 pg/mL. For the same molecule, the concentration giving a half-maximal response (EC50) with PBMC (6 hr, read-out: EC50 of IL-6, 6 hr) is over 500 µM; in the test with PBMC (24 hr, read-out: EC50 of IL-6, 24 hr), over 500 µM.

With `C=CCn1c(=O)n([C@@H]2O[C@H](COC(=O)c3ccc(NN)nc3)[C@@H](O)[C@H]2O)c2nc(N)[nH]c(=O)c21` [LD1, ((2R,3S,4R,5R)-5-(7-allyl-2-amino-6,8-dioxo-1,6,7,8-tetrahydropurin-9-yl)-3,4-dihydroxy-tetrahydrofuran-2-yl)methyl 6-hydrazinylnicotinate], the “stimulation of IL-6 release by PBMC (in words)” value with PBMC (LOX at 500 μM) is recorded as “did not stimulate IL-6”.

B1: >1000 kDa oxidized mannan-MART-1: recombinant MART-1 protein linked to >1000 kDa oxidized mannan (conjugate, UniProt Q16655 1-118, looked up)
Melanoma antigen recognized …: MPREDAHFIYGYPKKGHGHSYTTAEEAAGIGILTVILGVLLLIGCWYCRRRNGYRALMDKSLHVGTQCALTRRCPQEGFDHRDSKVSLQEKNCEPVVPNAPPAYEKLSAEQSPPPYSP
modifications: conjugated to >1000 kDa oxidized mannan
notes: recombinant MART-1 protein linked to >1000 kDa oxidized mannan
For B1, the “MART-1-specific T cell responses after priming” value in test [1] is “efficiently responded to analog or native MART-1 peptides presented by T2 cells”; in test [1] (listed as MART-1 >1000 kDa oxidized mannan) it was “more efficient in priming than unconjugated protein”.

As usually defined, the EC50 is the concentration that produces a half-maximal response.
